Laboratory results as given in ChEMBL document CHEMBL3507680, “University of Dundee, Gates Library screen for HepG2 cell viability”.

Test: Human HepG2 cell viability assay in 384 well format
Format: toxicity, cell-based
Parameters: dose 125 nL, time 70.5 hour; concentration not given beside the values
Details: HepG2 cells, read-out: Inhibition

Row | SMILES | cytotoxicity at 70.5 h
1 | CN(C)C(=O)COCc1cncc2c1CCN(Cc1ccccn1)C2 | -7.2%
2 | Cn1nccc1CNC(=O)NC1CCN(c2ncccc2Cl)C1 (stereo not drawn) | -0.776%
3 | Cc1ncccc1C(=O)Nc1cccc(C[S+](C)[O-])c1C (stereo not drawn) | 0.697%
4 | CCN(C)c1ncnc2c1CCN(C(=O)[C@H]1CCCO1)CC2 | -9.23%
5 | COc1ccc(CCNC(=O)NCc2cccc(C(N)=O)c2)cc1OC | -15%
6 | O=C(NCCCc1nc(=O)[nH][nH]1)Nc1ccc(Cl)cc1 | -13.5%
7 | OCc1ccc(CN2CCC(n3cc(C4CCCCC4)nn3)CC2)o1 | -7.14%
8 | COC(=O)c1cc(NC(=O)NCC2CCS(=O)(=O)C2)ccc1Cl (stereo not drawn) | -0.58%
9 | Cn1cc(CNC(=O)Nc2ccc(S(=O)(=O)C(F)F)cc2)cn1 | 0.531%
10 | Cc1oc(-c2nc(C#N)c(NC(C)C)o2)cc1S(=O)(=O)N1CCCC1 | -25.3%
11 | Cc1ccn(-c2ccccc2NCc2scnc2C)n1 | -1.69%
12 | Cc1c(C(=O)N2CC(C)(C)C2(C)C)nnn1-c1cccc2cnccc12 | -2.78%
13 | Cc1cc(C)c(CNC(=O)NCCOc2ccc3c(c2)CCC3)c(=O)[nH]1 | -9.44%
14 | CC(C)N(C)Cc1nnc2n1CCCN(S(=O)(=O)C1CC1)C2 | -5.26%
15 | Cc1cccc(N(C)Cc2cc(=O)n3oc(C)cc3n2)c1 | 3.47%
16 | CCc1nc(C)c(C(=O)N2CCNCC2C(=O)Nc2ccc(C)nc2)o1 (stereo not drawn) | -3.52%
17 | O=C(N1CCC(Nc2cccnn2)CC1)C1(c2ccc(F)cc2)CC1 | -6.39%
18 | CCOc1ncccc1CNS(=O)(=O)c1ccc2c(c1)CCO2 | -2.87%
19 | CCN(C)Cc1cnc(S(=O)(=O)CC)n1CCOC | -3.96%
20 | N#Cc1ccc(C(=O)N2CC[C@H]3[C@@H]2CCC(=O)N3c2cccnc2)cc1 | -6.84%
21 | Cn1c(CCN2CCN(CCc3ccccc3)CC2)nc2ccccc21 | -6.23%
22 | COCCOc1cc(C(=O)N2CC(C)c3ccccc32)ccn1 (stereo not drawn) | -11.1%
23 | CN1CCCC1CNC(=O)CCCOc1ccc(Cl)cc1 (stereo not drawn) | -2.04%

Row | SMILES | cytotoxicity at 70.5 h
24 | Cc1ccc(S(=O)(=O)Nc2ccc(=O)n(C)c2)cc1 | -13.1%
25 | Cn1cc(-c2cccc(CNC(=O)N3CCC[C@@H]3CO)c2)cn1 | -4.94%
26 | Cc1cc(CN2CCC(CNC(=O)c3ccc4[nH]cnc4c3)C2)[nH]n1 (stereo not drawn) | -6.71%
27 | CC(=O)Nc1nc(SCc2ccc3c(c2)OCO3)ns1 | -6.56%
28 | NCCc1nc(N[C@@H](CO)c2ccccc2)c2ccccc2n1 | 7.85%
29 | Cc1nnc(SCC(=O)NCc2ccc3c(c2)CCC(=O)N3)n1C | -3%
30 | Cc1nn(C)c2ncnc(NCC(O)CN3CCCCC3)c12 (stereo not drawn) | 21.5%
31 | CC[C@H]1CN2CC[C@H]1C[C@@H]2CNC(=O)Nc1ccccc1 | -2.2%
32 | CC(=O)OCc1ccc(CN2CCCCCC2c2cc(C)no2)o1 (stereo not drawn) | 24.7%
33 | c1ccc(CN2CCc3c(COCC4CC4)cncc3C2)nc1 | -11.4%
34 | Cc1ccc(CN2CCO[C@@H]3[C@@H](OCc4cccnc4)CC[C@@H]32)o1 | -4.63%
35 | CCN1CCCC(CN(C)c2nccc(-c3ccc(C)nc3C)n2)C1 (stereo not drawn) | -1.39%
36 | COc1ccccc1CC(=O)NS(C)(=O)=O | -10.7%
37 | Cc1ccc(-c2nc(C(=O)N3CCCCC3CNS(C)(=O)=O)cs2)cc1 (stereo not drawn) | 11%
38 | c1csc(CN2CCC3(CCOCC3COCC3CC3)CC2)n1 (stereo not drawn) | -3.9%
39 | CN1CCCC(c2cccc(Cc3ccccc3Cl)n2)C1 (stereo not drawn) | -3.75%
40 | CC1CCN(S(=O)(=O)c2ccc(C(=O)N3CCSCC3)cc2)CC1 | -13%
41 | CS(=O)(=O)NCC1CCCN(C(=O)c2ccc3c(c2)CCCC3)C1 (stereo not drawn) | 5.26%
42 | O=C1CC[C@]2(CC[C@@H](NCc3ccsc3)CC2)N1Cc1ccccc1 | -3.82%
43 | NCc1cn(-c2ccccc2C(=O)NCc2ccccc2Cl)cn1 | -8.27%
44 | CN1CCC(Cc2cc(N(C)C)ncn2)C1 (stereo not drawn) | 5.25%
45 | Cc1nc(CN2CCC3(CCCO3)CCC2=O)no1 (stereo not drawn) | -3.41%
46 | Cc1oc(-c2ccoc2)nc1CN1CCC[C@H]1CO | -3.95%

Row | SMILES | cytotoxicity at 70.5 h
47 | c1ncc(-c2cn(CCSc3cnn[nH]3)nn2)cn1 | -6.48%
48 | CCOCCn1nc(C)cc1C(=O)N1CC[C@](C)(O)[C@H](C)C1 | -8.61%
49 | CCCC1CCCN(Cc2csc(-c3ncccn3)n2)CC1 (stereo not drawn) | -1.51%
50 | Cc1ncsc1CN1CCOC(C)(C(N)=O)C1 (stereo not drawn) | -1.13%
51 | c1cc(NCc2ccsc2)cc(-c2nnc[nH]2)c1 | 1.3%
52 | FC(F)(F)c1cccc(CN2CCOC[C@H](Oc3cccnc3)C2)c1 | -1.63%
53 | CS(=O)(=O)NCc1noc2c1CN(C(=O)C1CC1)CC2 | -7.86%
54 | Cc1nc2c(C)cccc2cc1C(=O)N1CCC2(CCCNC2)C1 (stereo not drawn) | -11.4%
55 | Cc1nc(C)n(CC2CCCCN2CC(=O)NC2CCOCC2)n1 (stereo not drawn) | -5.93%
56 | Cc1ccc(C(=O)N2CCC3(CC2)CC(N2CCCC2)C3)cc1 | -10.8%
57 | CCOC(=O)c1n[nH]cc1CN1CCOC(Cc2ccc(OC)cc2)C1 (stereo not drawn) | -3.26%
58 | CCOC(=O)c1sc(NC(=O)C(C)C)c(C#N)c1C | -5.23%
59 | CCN(CC(C)C#N)C(=O)c1cccc(COc2ccc(C)nc2)c1 (stereo not drawn) | -4.47%
60 | Cc1cc(C(=O)N2CCC[C@]3(C[C@@H](OCC4CC4)CO3)C2)no1 | -11.6%
61 | Cc1cccc(COc2ccccc2C(=O)N2CCC(C(N)=O)CC2)c1 | 4.8%
62 | CCN(CC)S(=O)(=O)CCNC(=O)N(C)C(C)c1ccccn1 (stereo not drawn) | -8.05%
63 | CN(C)CCn1c2c(ccc1=O)CC(NC(=O)c1ccsc1)CC2 (stereo not drawn) | 11.3%
64 | CCC(CC)C(=O)N1CCOC2(COCCN(CC(=O)NC)C2)C1 (stereo not drawn) | -11.7%
65 | CCOCC1CN(C(=O)c2cc(C)oc2C)Cc2c1cnn2C (stereo not drawn) | -0.121%
66 | O=C(CCN1C(=O)CCC1=O)Nc1ccc(Cl)cc1 | -1.6%
67 | COc1ccc(-c2nnc(C(C)N3CCOCC3)o2)cc1 (stereo not drawn) | -2.92%
68 | COCC(=O)N1CCn2c(COc3cccnc3)cnc2C1C (stereo not drawn) | 6.09%
69 | CN(Cc1nccn1C)C(=O)C1COCC(=O)N1Cc1ccccc1 (stereo not drawn) | 30.1%

Row | SMILES | cytotoxicity at 70.5 h
70 | CCNC(=O)Cc1ccc(NC(=O)NC(CC)c2ccncc2)cc1 (stereo not drawn) | -2.39%
71 | CCc1nccn1CCC(=O)N1CC[C@@H](c2ccc(F)cc2)[C@H](O)C1 | -12.3%
72 | O=C(NCc1ccccc1Cn1cncn1)C1CCCC1 | -3.85%
73 | O=C(C1CCOC1)N1CCC(OCc2ccccc2)CC1 (stereo not drawn) | -5.49%
74 | CN(Cc1ccccc1)C(=O)[C@@H]1Cc2[nH]cnc2CN1C | 9.41%
75 | COCc1cc(C[C@@H]2CC[C@H](O)[C@@H](CNCC(C)C)O2)no1 | -0.483%
76 | CCc1nc(C)c(C(C)N(C)CCc2ccccn2)s1 (stereo not drawn) | 9.61%
77 | CCN(CCS(=O)(=O)c1ccc(Cl)cc1)Cc1ccc(OC)c(OC)c1 | -12.9%
78 | CC(C)c1nc(-c2ccnc(N3CCNCC3)n2)no1 | -7.09%
79 | Cc1ccc(CN2CCN(C(=O)C3CCC3)[C@@H]3CS(=O)(=O)C[C@@H]32)cc1C | -0.626%
80 | CC(C)N1CC(C(=O)NCc2ccc(S(=O)(=O)N(C)C)cc2)CC1=O (stereo not drawn) | -7.28%
81 | Cc1cc(C)cc(OCCN2CCn3c(C)nnc3C2)c1 | -4.98%
82 | NC(=O)C1CCN(C(=O)c2cccn2Cc2cccs2)C1 (stereo not drawn) | -0.693%
83 | Cc1nnc(C(NS(=O)(=O)c2cc(C)c(F)cc2F)C(C)C)[nH]1 (stereo not drawn) | -6.79%
84 | Cc1ncccc1NC(=O)[C@@H]1CCO[C@@H]2CCN(c3ccncn3)C[C@H]21 | -6.04%
85 | CN(CC(=O)NCc1ccco1)Cc1nc2c(s1)CCCC2 | 4%
86 | O=C(c1csnn1)N1CCc2ccccc21 | 2.68%
87 | O=C(NCCNc1ncccn1)c1scnc1Cl | 9.91%
88 | O=C(Nc1nncs1)NC1CCN(Cc2ccccc2)C1 (stereo not drawn) | -5.56%
89 | O=C(Nc1ccc(F)cc1)C1CCc2ccccc2N1 (stereo not drawn) | -1.61%
90 | Cc1cc(CN2CC[C@H]3OCC[C@@]3(C(=O)NCc3ccco3)C2)no1 | 0.284%
91 | NC(=O)COc1cccc(Cn2cc(Br)cn2)c1 | -1.2%
92 | C[C@@H]1CN(C(=O)C2CCS(=O)(=O)CC2)C[C@@]1(O)C1CC1 | -19.6%

Row | SMILES | cytotoxicity at 70.5 h
93 | CCCS(=O)(=O)N1CCC2(CC1)CC(N1CCCC1)c1ccccc12 (stereo not drawn) | -8.52%
94 | N[C@H]1CN(S(=O)(=O)Cc2ccccc2)C[C@@H]1C1CC1 | -6.71%
95 | CC(C)N1CCC(NC(=O)c2cn(-c3ccc(F)cc3)nn2)C1 (stereo not drawn) | -16.5%
96 | CCn1cnnc1C1CCN(C(=O)c2cccc(-n3cccc3)c2)CC1 | -2.68%
97 | Cc1cc(N2CCCC2c2cccnc2)nc(C)n1 (stereo not drawn) | 5.57%
98 | Cc1nn(C)c(C)c1NC(=O)CN1CCc2c(nc(C(C)C)n2C)C1 | -10.5%
99 | Cc1cc(N2Cc3cnn(CCO)c3C2)nc(-c2ccccc2)n1 | -11.9%
100 | CNc1nc2c(s1)C(=O)CN(C(=O)NCCc1ccccc1)C2 | 17.6%
101 | COCc1cc(N2C[C@@H](C)[C@](O)(C3CC3)C2)ncn1 | 0.518%
102 | CSCCC(C)(O)CNC(=O)Nc1ccccc1C (stereo not drawn) | -6.41%
103 | O=C(OCc1cccs1)c1cccc(C(=O)N2CCCC2)n1 | -8.17%
104 | COC(=O)N1CCC2(CC1)CC(c1ccccc1)CN(C)C2 (stereo not drawn) | -0.459%
105 | CCOCC(=O)N1CC[C@H]2OCC[C@@H](c3nnc(C)o3)[C@H]2C1 | 0.355%
106 | O[C@@H]1CCN(CC2CCOC2)[C@H]1Cc1ccccc1 (stereo partly drawn) | -3.68%
107 | O=C(c1ccc(Cl)cc1)N1CCn2c(nn(-c3cccc(Cl)c3)c2=O)C1 | -6.26%
108 | COC(=O)c1cccc(NS(=O)(=O)c2cnc(NC(C)=O)s2)c1 | -1.8%
109 | CCS(=O)(=O)NCCN1CCc2ccc(F)cc2C1C (stereo not drawn) | -4.91%
110 | Cc1cnc(N2C[C@H]3CCCC(N(C)Cc4ccccn4)[C@H]3C2)nc1 (stereo partly drawn) | -9.85%
111 | CN1CCOC(CNC(=O)Cc2coc(-c3ccccc3)n2)C1 (stereo not drawn) | -13.1%
112 | CNc1cc(C(=O)N2CCCCC2CCn2ccnc2C)ccn1 (stereo not drawn) | -2.8%
113 | CCc1cc(C(=O)N2CCc3nc4c(C)csc4c(=O)n3CC2)on1 | 20.2%
